According to patent US7145032B2, “Therapeutic malonic acid/acetic acid C60 tri-adducts of buckminsterfullerene and methods related thereto” (priority 2002, dated 2006):

Tests used:
monkeys = settings: one monkey; mean survival 25 months; cited from earlier work
Fisher 344 rats [1] = settings: cited from earlier work
Fisher 344 rats [2] = settings: same dose of deprenyl; cited from earlier work
rats = settings: treatment from age 96 weeks to end of life; control 147+/−1; cited from earlier work
C57B6 mice [3] = settings: chronic treatment starting at 18 months of age; cited from earlier work
Drosophila = settings: controlled study; cited from earlier work
[4] = Plasma pharmacokinetics and tissue distribution in mice
Excerpt: The above dosing information is based on a pharmokinetics study carried out in mice, toxicity testing in mice and toxicity testing in rats.

[5] = Thermal stability in 1:1 acetonitrile:water at 60°; format: physicochemical; settings: for Hexa, percent of injected compound (HPLC): 60° C.
Excerpt: The composition was monitored by HPLC, using protocols 2 and 4 (see Table 1).

Solubility = format: physicochemical
Excerpt: The progress of the reaction was monitored by HPLC (Protocol 2).

[6] = Hydration of freeze dried sodium salt; format: physicochemical; settings: dry weight divided by expected weight for complete neutralization; freeze dried 4 days
[7] = Reactivity of C3 with superoxide; format: biochemical; settings: calculated
Excerpt: Because many important biological reactions generate reactive oxygen species intentionally, or as unwanted toxic by-products, antioxidant molecules capable of supplementing the antioxidant defenses of cells as potential therapeutic agents are therapeutically useful. […] These novel carboxyfullerene compositions have antioxidant properties.

C57B6 mice [8] = format: in vivo; settings: oral C3 from 12 months of age to end of life, versus control
Description: The date of spontaneous death for each mouse was recorded, and used to calculate the lifespan. Lifespan of each mouse was calculated in months because mice received from the NIA rodent colony have their birth month, but not their specific birth date, recorded. Average survival was calculated for each treatment and the mean lifespans were compared using a t-test with significance set to p<0.05 (actual p=0.033).
Twelve month old C57B6NIH male and female mice (equal numbers) were purchased from the National Institute on Aging (NIA) Aging Rodent Colony. Mice shipped from this colony were not selected in any way for health, tumors or other disabilities, and all mice obtained from the colony were subsequently enrolled in the study. […]
Solution A or solution B was placed in the water bottles, and solutions were topped-off twice weekly, and filtered to remove any particulates biweekly by an individual blind to the identity of the solutions. […] Mice were allowed to die spontaneously, and their date of death were recorded by the Animal Housing Facility staff as part of the normal operating procedure of the facility. […] When animals died, the cage number, identity of the animal, and the date of death were recorded on the death notice, which was then sent to the laboratory, where the information was entered into the database.

Compound: O=CC[C@@H](O)[C@H](O)[C@H](O)CO [2-deoxyglucose]
- survival of a treated monkey (monkeys): 38 months

Compound: C#CCN(C)[C@H](C)Cc1ccccc1 [deprenyl]
- increase in longevity (Fisher 344 rats [1]; not statistically significant): 7%
- mean survival of treated animals (Fisher 344 rats [1]; treatment from 18 months of age, controls 28 months): 30 months
- effect on mortality and lifespan (Fisher 344 rats [2]): greater mortality and shortened lifespan
- lifespan of treated rats (rats): 198+/−2 weeks
- survival benefit (C57B6 mice [3]): failed to show any survival benefit
- effect on lifespan (Drosophila): did not show an increase in lifespan

Compound: e,e,e tris malonic acid C60 [Compound C3]
- route of clearance [4]: excretion through both the liver and kidney
- tissue levels / distribution ([4]; various times after ip administration): accumulation through the liver and kidney
- Thermal Stability # of products ([5]; 60°): 10
- Hexa, percent of injected compound (HPLC) ([5]; incubation 5.5 h): 2.6%
- Hexa, percent of injected compound (HPLC) ([5]; incubation […]): 9.2%
- Hexa, percent of injected compound (HPLC) ([5]; incubation […], 97.4% at 0 h): 40.5%
- Solubility Sodium salt (Solubility; calculated for the acid, unit not printed for this column (neighbour: mg/ml)): >450^6
- Solubility Water (Solubility; uv of liquid portion of a saturated solution): >454^6 mg/ml
- Hydration of Na salt [6]: 1.31
- rate constant of C3 reaction with superoxide [7]: 3e+06 M⁻¹ s⁻¹
- increase in the lifespan (C57B6 mice [8]): approximately 20%
